Laboratory results from paper PMC10151467, “Elucidating the origins of phycocyanobilin biosynthesis and phycobiliproteins” (Proceedings of the National Academy of Sciences of the …, 2023).

Tests used:
Cph1 (N514 truncation) = biological target: T1, Cph1 (N514 truncation) (Synechocystis sp. PCC 6803, UniProt Q55168); test: absorption, photoconversion, acid denaturation; assay type: binding; conditions: covalent adduct
T1 construct: N514 truncation construct sufficient for photoconversion, His-tagged, E. coli
T1 sequence (Q55168 1-514): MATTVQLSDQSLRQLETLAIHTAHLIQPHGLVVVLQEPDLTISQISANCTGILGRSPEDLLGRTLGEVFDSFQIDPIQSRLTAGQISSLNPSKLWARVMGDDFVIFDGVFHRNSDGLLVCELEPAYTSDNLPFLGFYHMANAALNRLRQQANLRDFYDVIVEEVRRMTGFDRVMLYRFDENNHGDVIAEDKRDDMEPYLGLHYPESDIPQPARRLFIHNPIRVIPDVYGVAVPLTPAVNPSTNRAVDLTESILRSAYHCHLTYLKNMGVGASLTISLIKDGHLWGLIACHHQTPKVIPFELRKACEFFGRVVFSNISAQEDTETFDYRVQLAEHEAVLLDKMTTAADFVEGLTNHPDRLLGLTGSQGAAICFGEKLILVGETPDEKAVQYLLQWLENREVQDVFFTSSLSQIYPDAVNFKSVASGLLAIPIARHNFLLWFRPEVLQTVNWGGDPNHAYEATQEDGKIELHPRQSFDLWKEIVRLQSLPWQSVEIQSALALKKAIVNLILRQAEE

POZ53552 (BBAG-1) [1] = biological target: T2, POZ53552 (BBAG-1) (Methylovulum psychrotolerans, UniProt A0A2S5CS40); test: absorption of purified holoprotein, acid denaturation; assay type: binding; conditions: covalent (CXRD motif)
T2 construct: gene AADEFJLK_00580; synthetic gene in pET28 (pET28-RcaE backbone); coexpressed in E. coli with bilin biosynthesis plasmid; CXRD motif
T2 sequence (A0A2S5CS40 1-198): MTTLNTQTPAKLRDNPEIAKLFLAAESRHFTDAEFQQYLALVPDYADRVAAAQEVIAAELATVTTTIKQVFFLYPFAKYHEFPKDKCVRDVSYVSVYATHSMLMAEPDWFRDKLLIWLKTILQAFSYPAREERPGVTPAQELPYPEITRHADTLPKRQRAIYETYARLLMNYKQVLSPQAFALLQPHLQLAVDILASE

CAP_1521 (BBAG-2) = biological target: T3, CAP_1521 (BBAG-2) (Chondromyces apiculatus, UniProt A0A017TC46); test: absorption of purified holoprotein, acid denaturation, CD; assay type: binding; conditions: covalent adduct; coexpressed in E. coli with HO POZ53545 and CAP_1520; 25 °C
T3 construct: coexpressed in E. coli with bilin biosynthesis plasmid
T3 sequence (A0A017TC46 1-259): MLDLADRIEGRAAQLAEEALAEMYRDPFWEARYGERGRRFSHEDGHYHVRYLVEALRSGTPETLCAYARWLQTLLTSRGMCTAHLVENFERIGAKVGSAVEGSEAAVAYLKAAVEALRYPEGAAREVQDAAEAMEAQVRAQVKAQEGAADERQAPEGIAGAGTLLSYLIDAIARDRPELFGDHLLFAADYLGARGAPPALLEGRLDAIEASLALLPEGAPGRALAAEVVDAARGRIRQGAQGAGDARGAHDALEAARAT

POZ53552 (BBAG-1) [2] = biological target: T2, POZ53552 (BBAG-1); test: absorption of purified holoprotein; assay type: binding; conditions: covalent (CXRD motif); coexpressed with HO POZ53545 alone (Spam-545xc); poor chromophorylation
POZ53557 (pre-1 FDBR) = biological target: T4, POZ53557 (pre-1 FDBR) (Methylovulum psychrotolerans, UniProt A0A2S5CS30); test: coexpression in E. coli with HO and Cph1 reporter; bilin identified on reporter; assay type: cell-based; conditions: E. coli coexpression with HO POZ53545; inefficient reduction to PΦB
T4 construct: gene pcyA; replaces alt-PcyA in plasmid Spam-545/alt557, coexpressed in E. coli with HO and Cph1 reporter; not purified
T4 sequence (A0A2S5CS30 1-228): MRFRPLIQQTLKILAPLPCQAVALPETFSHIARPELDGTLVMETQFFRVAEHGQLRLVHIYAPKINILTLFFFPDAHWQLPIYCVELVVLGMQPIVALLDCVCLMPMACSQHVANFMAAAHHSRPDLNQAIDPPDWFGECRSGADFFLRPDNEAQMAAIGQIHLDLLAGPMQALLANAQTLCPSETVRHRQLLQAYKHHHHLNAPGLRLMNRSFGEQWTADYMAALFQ

C=CC1=C(C)C(CC2=NC(=Cc3[nH]c(C=C4NC(=O)C(C)C4=CC)c(C)c3CCC(=O)O)C(CCC(=O)O)=C2C)NC1=O (stereo not shown) [PEB]
absorption, photoconversion, acid denaturation (Cph1 (N514 truncation); coexpressed with Spam-545/8304, photoinactive population of mixed preparation): The photoinactive pink population was consistent with the known properties of the PEB adduct
absorption of purified holoprotein, acid denaturation (POZ53552 (BBAG-1) [1]; coexpressed with Spam-545/8304, mixture of PΦB and PEB adducts): Denaturation analysis confirmed that these peaks reflected a mixture of PΦB and PEB

C=CC1=C(C)C(=CC2=NC(=Cc3[nH]c(C=C4NC(=O)C(C)C4=CC)c(C)c3CCC(=O)O)C(CCC(=O)O)=C2C)NC1=O (stereo not shown) [PΦB]
absorption, photoconversion, acid denaturation (Cph1 (N514 truncation); coexpressed with Spam-545/CAP): confirmed that this preparation contained a PΦB chromophore
absorption of purified holoprotein, acid denaturation (POZ53552 (BBAG-1) [1]; coexpressed with Spam-545/CAP, poor chromophorylation): BBAG-1 POZ53552 incorporated PΦB when coexpressed with Spam-545/CAP

C=CC1=C(C)C(=Cc2[nH]c(C=C3N=C(C=C4NC(=O)C(C)=C4C=C)C(C)=C3CCC(=O)O)c(CCC(=O)O)c2C)NC1=O [BV]
absorption of purified holoprotein, acid denaturation, CD (CAP_1521 (BBAG-2)): Acid denaturation demonstrated that both possessed BV adducts rather than PΦB adducts
absorption of purified holoprotein (POZ53552 (BBAG-1) [2]): POZ53545 with no FDBR (synthesizing BV; plasmid Spam-545xc
coexpression in E. coli with HO and Cph1 reporter; bilin identified on reporter (POZ53557 (pre-1 FDBR)): POZ53557 appears to carry out inefficient reduction of BV to PΦB
